Assay results reported in PubChem BioAssay AID256 (DTP/NCI, 2004).
“And” between values parts separate entries of the source, which are not always exact repeats. Equal values may be shown once. Toxic doses and inconclusive results are not listed. The calls were made as follows: active = survival T/C of 150% or more; inactive = T/C below 125% in these data.

System: CD2F1 mice, L1210 leukemia ip, survival T/C
Assay: NCI In Vivo Anticancer Drug Screen. Data for tumor model L1210 Leukemia (intraperitoneal) in CD2F1 (CDF1) mice
Details: higher = longer survival
In short: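 Read-out first: treated-group measurement over vehicle-control measurement, expressed as a ratio. Animals bore a transplanted tumor line and were dosed with compound or vehicle.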

[1] = endpoint: mean survival time, dose: 100.0 mg/kg/injection, schedule: Q01DX001 (ip), vehicle: saline with Tween-80
[2] = endpoint: mean survival time, dose: 200.0 mg/kg/injection, schedule: Q01DX001 (ip), vehicle: saline with Tween-80
[3] = endpoint: mean survival time, dose: 400.0 mg/kg/injection, schedule: Q01DX001 (ip), vehicle: saline with Tween-80
[4] = endpoint: mean survival time, dose: 75.0 mg/kg/injection, schedule: Q01DX001 (ip), vehicle: saline
[5] = endpoint: mean survival time, dose: 150.0 mg/kg/injection, schedule: Q01DX001 (ip), vehicle: saline
[6] = endpoint: mean survival time, dose: 100.0 mg/kg/injection, schedule: Q01DX009 (ip), vehicle: saline with Tween-80
[7] = endpoint: mean survival time, dose: 200.0 mg/kg/injection, schedule: Q01DX009 (ip), vehicle: saline with Tween-80
[8] = endpoint: mean survival time, dose: 400.0 mg/kg/injection, schedule: Q01DX009 (ip), vehicle: saline with Tween-80
[9] = endpoint: mean survival time, dose: 100.0 mg/kg/injection, schedule: Q04DX003 (ip), vehicle: saline with Tween-80
[10] = endpoint: mean survival time, dose: 200.0 mg/kg/injection, schedule: Q04DX003 (ip), vehicle: saline with Tween-80
[11] = endpoint: mean survival time, dose: 400.0 mg/kg/injection, schedule: Q04DX003 (ip), vehicle: saline with Tween-80
[12] = endpoint: mean survival time, dose: 25.0 mg/kg/injection, schedule: Q01DX009 (ip), vehicle: saline with Tween-80

Measured: T/C

CC(C)NCC(O)c1ccc(O)c(O)c1 (stereo not given)
inactive: endpoint: mean survival time, dose: 4.0 mg/kg/injection, schedule: Q01DX009 (ip), vehicle: saline 101 % of control | endpoint: mean survival time, dose: 8.0 mg/kg/injection, schedule: Q01DX009 (ip), vehicle: saline 107 % of control and 109 % of control | endpoint: mean survival time, dose: 16.0 mg/kg/injection, schedule: Q01DX001 (ip), vehicle: saline 96 % of control | endpoint: mean survival time, dose: 16.0 mg/kg/injection, schedule: Q01DX009 (ip), vehicle: saline 107 % of control and 113 % of control | endpoint: mean survival time, dose: 32.0 mg/kg/injection, schedule: Q01DX001 (ip), vehicle: saline 100 % of control | endpoint: mean survival time, dose: 32.0 mg/kg/injection, schedule: Q01DX009 (ip), vehicle: saline 104 % of control and 107 % of control | endpoint: mean survival time, dose: 50.0 mg/kg/injection, schedule: Q01DX001 (ip), vehicle: saline 95 % of control | endpoint: mean survival time, dose: 64.0 mg/kg/injection, schedule: Q01DX001 (ip), vehicle: saline 98 % of control and 102 % of control | endpoint: mean survival time, dose: 64.0 mg/kg/injection, schedule: Q01DX009 (ip), vehicle: saline 121 % of control | endpoint: mean survival time, dose: 100.0 mg/kg/injection, schedule: Q01DX001 (ip), vehicle: saline 104 % of control | endpoint: mean survival time, dose: 100.0 mg/kg/injection, schedule: Q01DX009 (ip), vehicle: saline 108 % of control | endpoint: mean survival time, dose: 128.0 mg/kg/injection, schedule: Q01DX001 (ip), vehicle: saline 100 % of control and 105 % of control | endpoint: mean survival time, dose: 178.0 mg/kg/injection, schedule: Q01DX009 (ip), vehicle: saline 112 % of control | endpoint: mean survival time, dose: 200.0 mg/kg/injection, schedule: Q01DX001 (ip), vehicle: saline 104 % of control | endpoint: mean survival time, dose: 200.0 mg/kg/injection, schedule: Q01DX009 (ip), vehicle: saline 111 % of control | endpoint: mean survival time, dose: 256.0 mg/kg/injection, schedule: Q01DX001 (ip), vehicle: other 102 % of control | endpoint: mean survival time, dose: 256.0 mg/kg/injection, schedule: Q01DX001 (ip), vehicle: saline 105 % of control | endpoint: mean survival time, dose: 266.0 mg/kg/injection, schedule: Q01DX009 (ip), vehicle: saline 120 % of control | endpoint: mean survival time, dose: 400.0 mg/kg/injection, schedule: Q01DX001 (ip), vehicle: saline 110 % of control | endpoint: mean survival time, dose: 400.0 mg/kg/injection, schedule: Q01DX009 (ip), vehicle: saline 122 % of control | endpoint: mean survival time, dose: 600.0 mg/kg/injection, schedule: Q01DX009 (ip), vehicle: saline 112 % of control

Oc1ccc(CC2=NCCc3cc(O)c(O)cc32)cc1O
inactive: endpoint: mean survival time, dose: 5.0 mg/kg/injection, schedule: Q01DX001 (ip), vehicle: saline 104 % of control | endpoint: mean survival time, dose: 10.0 mg/kg/injection, schedule: Q01DX001 (ip), vehicle: saline 98 % of control | endpoint: mean survival time, dose: 20.0 mg/kg/injection, schedule: Q01DX001 (ip), vehicle: saline 98 % of control | endpoint: mean survival time, dose: 40.0 mg/kg/injection, schedule: Q01DX001 (ip), vehicle: saline 100 % of control | endpoint: mean survival time, dose: 80.0 mg/kg/injection, schedule: Q01DX001 (ip), vehicle: saline 102 % of control

C(#CC[P+](c1ccccc1)(c1ccccc1)c1ccccc1)C[P+](c1ccccc1)(c1ccccc1)c1ccccc1
inactive: endpoint: mean survival time, dose: 0.78 mg/kg/injection, schedule: Q01DX009 (ip), vehicle: Klucel (hydroxypropylcellulose) (HPC) 92 % of control | endpoint: mean survival time, dose: 1.56 mg/kg/injection, schedule: Q01DX009 (ip), vehicle: Klucel (hydroxypropylcellulose) (HPC) 92 % of control | endpoint: mean survival time, dose: 3.12 mg/kg/injection, schedule: Q01DX009 (ip), vehicle: Klucel (hydroxypropylcellulose) (HPC) 90 % of control | endpoint: mean survival time, dose: 6.25 mg/kg/injection, schedule: Q01DX009 (ip), vehicle: Klucel (hydroxypropylcellulose) (HPC) 101 % of control | endpoint: mean survival time, dose: 12.5 mg/kg/injection, schedule: Q01DX009 (ip), vehicle: Klucel (hydroxypropylcellulose) (HPC) 93 % of control and 107 % of control

COc1ccc(/C=C/C(=O)O)cc1
inactive: [1] 102 % of control | [2] 96 % of control | [3] 97 % of control

CCn1c(C)[n+](CC)c2ccc(C(F)(F)F)cc21
inactive: [4] 94 % of control | [5] 100 % of control

CCOC(=O)Nc1cc2ncc(C(=O)N(C)c3ccccc3)nc2c(N)n1
inactive: [1] 98 % of control | [2] 88 % of control | [3] 98 % of control

Cc1ccc(C(=O)Nc2ccccc2I)cc1
inactive: [6] 97 % of control | [7] 101 % of control | [8] 97 % of control

NC(=O)c1cc2ccncc2c2ccccc12
inactive: [9] 97 % of control | [10] 97 % of control | [11] 106 % of control

CC(=O)C(C)C(C)=O
inactive: [6] 105 % of control | [7] 107 % of control | [8] 102 % of control

On1ccnc2nncc1-2
inactive: endpoint: mean survival time, dose: 11.3 mg/kg/injection, schedule: Q01DX005 (ip), vehicle: other 104 % of control | endpoint: mean survival time, dose: 22.5 mg/kg/injection, schedule: Q01DX005 (ip), vehicle: other 104 % of control | endpoint: mean survival time, dose: 45.0 mg/kg/injection, schedule: Q01DX005 (ip), vehicle: other 101 % of control | endpoint: mean survival time, dose: 90.0 mg/kg/injection, schedule: Q01DX005 (ip), vehicle: other 97 % of control | endpoint: mean survival time, dose: 180.0 mg/kg/injection, schedule: Q01DX005 (ip), vehicle: other 93 % of control | endpoint: mean survival time, dose: 200.0 mg/kg/injection, schedule: Q01DX005 (ip), vehicle: other 102 % of control | endpoint: mean survival time, dose: 400.0 mg/kg/injection, schedule: Q01DX005 (ip), vehicle: other 106 % of control

CC(=O)OC1CC2CC(O)(C(=O)CO)CC2C2CCC3=CC(=O)CC3C(C)(O)C12 (stereo not given)
inactive: [4] 91 % of control | [5] 96 % of control | endpoint: mean survival time, dose: 300.0 mg/kg/injection, schedule: Q01DX001 (ip), vehicle: saline 95 % of control

NNN1CCN(N)CC1
inactive: [1] 103 % of control | [2] 111 % of control | [3] 91 % of control

Cc1cc(C)c(C(Cl)(Cl)Cl)c(C)c1Cl
inactive: [12] 108 % of control | endpoint: mean survival time, dose: 50.0 mg/kg/injection, schedule: Q01DX009 (ip), vehicle: saline with Tween-80 111 % of control | [1] 107 % of control

CCN(Cc1ccc(Cl)c(Cl)c1)c1ccc2nc(N)nc(N)c2c1C
inactive: endpoint: mean survival time, dose: 1.5 mg/kg/injection, schedule: Q01DX009 (ip), vehicle: water 97 % of control | endpoint: mean survival time, dose: 3.0 mg/kg/injection, schedule: Q01DX009 (ip), vehicle: water 106 % of control | endpoint: mean survival time, dose: 24.0 mg/kg/injection, schedule: Q01DX009 (ip), vehicle: water 101 % of control | endpoint: median survival time, dose: 1.5 mg/kg/injection, schedule: Q01DX009 (ip), vehicle: water 103 % of control | endpoint: median survival time, dose: 3.0 mg/kg/injection, schedule: Q01DX009 (ip), vehicle: water 111 % of control | endpoint: median survival time, dose: 6.0 mg/kg/injection, schedule: Q01DX009 (ip), vehicle: water 112 % of control

CC(C)(CO)C(O)C(=O)NCCS(=O)c1ccc(F)cc1 (stereo not given)
inactive: endpoint: mean survival time, dose: 100.0 mg/kg/injection, schedule: Q04DX003 (ip), vehicle: other 100 % of control | endpoint: mean survival time, dose: 200.0 mg/kg/injection, schedule: Q04DX003 (ip), vehicle: other 96 % of control | endpoint: mean survival time, dose: 400.0 mg/kg/injection, schedule: Q04DX003 (ip), vehicle: other 100 % of control

Nc1cc(Br)cc(Br)c1
inactive: [9] 94 % of control | [10] 105 % of control | [11] 94 % of control

NC(=O)c1csc(C2OC(COP(=O)(O)O)C(O)C2O)n1 (stereo not given)
active: endpoint: mean survival time, dose: 200.0 mg/kg/injection, schedule: Q01DX005 (ip), vehicle: water 259 % of control | endpoint: mean survival time, dose: 400.0 mg/kg/injection, schedule: Q01DX005 (ip), vehicle: water 155 % of control and 183 % of control | endpoint: mean survival time, dose: 600.0 mg/kg/injection, schedule: Q01DX005 (ip), vehicle: water 160 % of control | endpoint: mean survival time, dose: 800.0 mg/kg/injection, schedule: Q01DX005 (ip), vehicle: water 196 % of control

CCOC(=O)c1cnc(NN)nc1Nc1cc(Cl)cc(Cl)c1
inactive: endpoint: mean survival time, dose: 6.25 mg/kg/injection, schedule: Q01DX009 (ip), vehicle: saline with Tween-80 94 % of control | endpoint: mean survival time, dose: 12.5 mg/kg/injection, schedule: Q01DX009 (ip), vehicle: saline with Tween-80 86 % of control | endpoint: mean survival time, dose: 12.5 mg/kg/injection, schedule: Q04DX003 (ip), vehicle: saline with Tween-80 89 % of control | [12] 95 % of control | endpoint: mean survival time, dose: 25.0 mg/kg/injection, schedule: Q04DX003 (ip), vehicle: saline with Tween-80 89 % of control
